Tested on: not given
Test: not given
Details: not given

| SMILES | melting point |
| --- | --- |
| N#Cc1ccc(Cl)cc1O[C@H](CCCNCCCO)c1ccccc1.O=C(O)C(=O)O [Example 11, 4-Chloro-2-[[(1R)-4-[(3-hydroxypropyl)amino]-1-phenylbutyl]oxy]-benzonitrile ethanedioate] | 111 to 112 °C |
| CNCCCC(Oc1cc(Cl)ccc1C#N)c1ccccn1.O=C(O)C(=O)O (stereo not shown) [Example 31, 4-Chloro-2-[4-(methylamino)-1-(2-pyridinyl)butoxy]benzonitrile oxalate] | 170 to 171 °C |
| N#Cc1ccc(Cl)cc1O[C@H](CCCN1CCCC1)c1ccccc1.O=C(O)C(=O)O [Example 3, 4-Chloro-2-[[(1R)-1-phenyl-4-(1-pyrrolidinyl)butyl]oxy]-benzonitrile ethanedioate] | 157 to 158 °C |
| CNCCCC(Oc1cc(Cl)c(F)cc1C#N)c1ccccn1.O=C(O)C(=O)O (stereo not shown) [Example 32, 4-Chloro-5-fluoro-2-[4-(methylamino)-1-(2-pyridinyl)butoxy]benzonitrile oxalate] | 169 to 170 °C |
| CNCCCC(Oc1cc(Cl)ccc1C#N)c1ccncc1.O=C(O)C(=O)O (stereo not shown) [Example 37, 4-Chloro-2-[4-(methylamino)-1-(4-pyridinyl)butoxy]benzonitrile oxalate] | 169 to 172 °C |
| N#Cc1ccc(Cl)cc1O[C@H](CCCNCCO)c1ccccc1.O=C(O)C(=O)O [Example 9, 4-Chloro-2-[[(1R)-4-[(2-hydroxyethyl)amino]-1-phenylbutyl]oxy]-benzonitrile ethanedioate] | 158 to 159 °C |

Other lines, results leading:

| melting point | SMILES |
| --- | --- |
| 141 to 144 °C | CCN(CCO)CCC[C@@H](Oc1cc(Cl)ccc1C#N)c1ccccc1.Cl |
| 186 to 187 °C | C[C@@H](CO)NCCC[C@@H](Oc1cc(Cl)ccc1C#N)c1ccccc1.O=C(O)C(=O)O [Example 13, 4-Chloro-2-[[(1R)-4-[[(1S)-2-hydroxy-1-methylethyl]amino]-1-phenylbutyl]oxy]-benzonitrile ethanedioate] |
| 167 to 169 °C | CNCC[C@@H](Cc1ccccc1)Oc1cc(Cl)ccc1Cl.O=C(O)C(=O)O [Example 2, R-γ-(2,5-Dichlorophenoxy)-N-methyl-benzenebutanamine ethanedioate] |
| 126 to 130 °C | CNCC[C@@H](Cc1ccc(C)cc1)Oc1cc(Cl)ccc1Cl.O=C(O)/C=C/C(=O)O [Example 17, R-γ-(2,5-Dichlorophenoxy)-N,4-dimethyl-benzenebutanamine fumarate] |
| 173 to 174 °C | N#Cc1ccc(Cl)cc1O[C@H](CCCNC1CC1)c1ccccc1.O=C(O)C(=O)O [Example 10, 4-Chloro-2-[[(1R)-4-(cyclopropylamino)-1-phenylbutyl]oxy]-benzonitrile ethanedioate] |
| 163 to 164 °C | C[C@H](CO)NCCC[C@@H](Oc1cc(Cl)ccc1C#N)c1ccccc1.O=C(O)C(=O)O [Example 12, 4-Chloro-2-[[(1R)-4-[[(1R)-2-hydroxy-1-methylethyl]amino]-1-phenylbutyl]oxy]-benzonitrile ethanedioate] |
| 188 to 189 °C | N#Cc1ccc(Cl)cc1O[C@H](CCCNCc1cccnc1)c1ccccc1.O=C(O)C(=O)O [Example 6, 4-Chloro-2-[[(1R)-1-phenyl-4-[(3-pyridinylmethyl)amino]butyl]oxy]-benzonitrile ethanedioate] |
| 160 to 162 °C | CNCC[C@@H](Cc1ccc(F)cc1)Oc1cc(Cl)ccc1Cl [Example 15, R-γ-(2,5-Dichlorophenoxy)-4-fluoro-N-methyl benzenebutanamine] |
| 167 to 169 °C | CNCCC[C@@H](Oc1cc(Cl)ccc1C#N)c1ccccc1.O=C(O)C(=O)O [Example 1, 4-Chloro-2-[[(1R)-4-(methylamino)-1-phenylbutyl]oxy]benzonitrile ethanedioate] |

Molecular target: T1, nitric oxide synthase (induced, from murine macrophage cell line J774A-1) (Mus musculus, UniProt P29477)
T1 construct: The reaction is started by adding 50 μl of cell lysate (prepared as above); endogenous in cells; host or cells: J774A-1 murine macrophage cell line, induced with LPS and IFN-gamma; crude cell lysate
Test: Screen 1: nitric oxide synthase inhibition, 3H-L-arginine to 3H-L-citrulline conversion, lysate of induced J774A-1 cells
Type: biochemical
Details: standard to verify the procedure, 1 hour at room temperature, read-out: IC50 (50% inhibitory concentration)
Experimental: The activity of compounds of formula (I), or a pharmaceutically acceptable salt, enantiomer or racemate thereof, may be screened for nitric oxide synthase inhibiting activity by a procedure based on that of Förstermann et al., Eur. J. Pharm., 1992, 225; 161-165. Nitric oxide synthase converts ^3H-L-arginine into ^3H-L-citrulline which can be separated by cation exchange chromatography and quantified by liquid scintillation counting.
Enzyme is prepared, after induction, from the cultured murine macrophage cell line J774A-1 (obtained from the laboratories of the Imperial Cancer Research Fund). J774A-1 cells are cultured in Dulbeccos Modified Eagles Medium (D[MEM) supplemented with 10% foetal bovine serum, 4 mM L-glutamine and antibiotics (100 units/ml penicillin G, […] streptomycin & […] amphotericin B). Cells are routinely grown in […] flasks containing 35 ml medium kept at 37° C. and in a humidified atmosphere containing 5% CO2. […]
Labelled L-citrulline is separated from labelled L-arginine using Dowex AG-50W. […] After allowing the samples to dry the L-citrulline is quantified by scintillation counting.
In a typical experiment basal activity is 300 dpm per 75 μl sample which is increased to 1900 dpm in the reagent controls. […] Compounds are tested at a range of concentrations and from the inhibitions obtained IC50 values are calculated. […]

| SMILES | IC50 |
| --- | --- |
| N=C(N)NN [aminoguanidine] | 10 µM |

From patent US6743939B2, “Phenylheteroalkylamine derivatives” (AstraZeneca AB, priority 2000, dated 2004)
